Tested on: P388
Assay: Actual inhibitory activity in P388 leukemia cells by CoMFA analysis, expressed as log 1/IC50.
Type: functional, cell-based
Conditions: Mus musculus, P388, read-out: Log 1/IC50 (converted)

Structure (SMILES) | IC50 [nM]
CC(=O)O[C@H]1C[C@H]2[C@@H](OC(C)=O)CC3C[C@](C)(C(=O)[C@H](O)C(=C1C)C2(C)C)[C@@H](O)C[C@@H]3OC(=O)/C=C/c1ccccc1 | 47.9
C=C1[C@@H](OC(=O)/C=C/c2ccccc2)CC[C@@]2(C)[C@@H](OC(C)=O)[C@H](OC(C)=O)C3=C(C)C(=O)C[C@@H]([C@@H](OC(C)=O)[C@H]12)C3(C)C | 10
C=C1[C@@H](O)C[C@H](OC(C)=O)[C@@]2(C)[C@@H](OC(C)=O)[C@H](OC(C)=O)C3=C(C)[C@@H](OC(C)=O)C[C@@H]([C@@H](OC(C)=O)[C@H]12)C3(C)C [DECINNAMOYLTAXININE J] | 12.6
CCCCCC(=O)N[C@@H](c1ccccc1)[C@@H](O)C(=O)O[C@H]1C[C@@]2(O)[C@@H](OC(=O)c3ccccc3)[C@@H]3[C@]4(OC(C)=O)CO[C@@H]4C[C@H](O)[C@@]3(C)C(=O)[C@H](OC(C)=O)C(=C1C)C2(C)C [TAXOL C] | 81.4
CCCCCCC(=O)N[C@@H](c1ccccc1)[C@@H](O)C(=O)O[C@H]1C[C@@]2(O)[C@@H](OC(=O)c3ccccc3)[C@@H]3[C@]4(OC(C)=O)CO[C@@H]4C[C@H](O)[C@@]3(C)C(=O)[C@H](OC(C)=O)C(=C1C)C2(C)C | 18.2
CC(=O)O[C@@H]1C2=C(C)C(=O)C[C@@](O)([C@@H](OC(=O)c3ccccc3)[C@@H]3[C@]4(OC(C)=O)CO[C@@H]4C[C@H](O)[C@@]3(C)[C@H]1O)C2(C)C | 47.9
CC(=O)O[C@H]1C(=O)[C@@]2(C)[C@H]([C@H](OC(=O)c3ccccc3)[C@]3(O)C[C@H](OC(=O)[C@H](O)[C@@H](NC(=O)c4ccccc4)c4ccccc4)C(C)=C1C3(C)C)[C@]1(OC(C)=O)CO[C@@H]1C[C@@H]2O [PACLITAXEL] | 21.9
C=C1[C@H]2C[C@@H]3C[C@H](OC(C)=O)C(C)=C([C@@H](OC(C)=O)[C@H](OC(C)=O)[C@]2(C)[C@@H](OC(C)=O)C[C@@H]1O)C3(C)C | 43.7
C=C1[C@@H](OC(=O)/C=C/c2ccccc2)C[C@H](OC(C)=O)[C@@]2(C)[C@@H](OC(C)=O)[C@H](OC(C)=O)[C@]3(O)[C@@]4(C)CO[C@]3(C)C(=O)C[C@H]4[C@@H](OC(C)=O)[C@H]12 [TAXAGIFINE] | 10
CC(=O)O[C@H]1C[C@@]2(O)[C@@H](OC(C)=O)[C@@H]3[C@@]4(CO4)[C@@H](OC(C)=O)C[C@H](OC(C)=O)[C@@]3(C)[C@@H](OC(C)=O)[C@H](OC(C)=O)C(=C1C)C2(C)C | 10
CC(=O)O[C@H]1C(=O)[C@@]2(C)[C@H]([C@H](OC(=O)c3ccccc3)[C@]3(O)C[C@H](O)C(C)=C1C3(C)C)[C@]1(OC(C)=O)CO[C@@H]1C[C@@H]2O [BACCATIN III] | 63.2
C=C1[C@@H](OC(=O)/C=C/c2ccccc2)C[C@H](OC(C)=O)[C@@]2(C)[C@@H](OC(C)=O)[C@H](OC(C)=O)C3=C(C)C(=O)C[C@@H]([C@@H](OC(C)=O)[C@H]12)C3(C)C | 10
CC(=O)O[C@@]12CO[C@@H]1C[C@H](O)[C@@]1(C)C(=O)[C@H](O)C3=C(C)[C@@H](OC(=O)[C@H](O)[C@@H](NC(=O)C4CCC4)c4ccccc4)C[C@@](O)([C@@H](OC(=O)c4ccccc4)[C@H]21)C3(C)C | 66.1
CC(=O)O[C@@]12CO[C@@H]1C[C@H](O)[C@]1(C)[C@@H]2[C@H](OC(=O)c2ccccc2)[C@]2(O)CC(=O)C(C)=C([C@@H](O)[C@@H]1O)C2(C)C | 100
CC(=O)O[C@H]1[C@@H]2[C@H](CO)[C@@H](OC(C)=O)C[C@H](OC(C)=O)[C@@]2(C)[C@@H](OC(C)=O)[C@H](OC(C)=O)C2=C(C)[C@@H](OC(C)=O)C[C@@H]1C2(C)C | 14.1
C=C1[C@@H](OC(C)=O)CC[C@@]2(C)[C@@H](OC(C)=O)[C@H](OC(C)=O)C3=C(C)[C@@H](OC(C)=O)C[C@@H]([C@@H](OC(C)=O)[C@H]12)C3(C)C | 16.6
C=C1[C@H]2C[C@]3(O)C[C@H](O)C(C)=C([C@@H](OC(C)=O)[C@H](OC(C)=O)[C@]2(C)[C@@H](OC(=O)c2ccccc2)C[C@@H]1O)C3(C)C | 25.1
C=C1[C@H]2C[C@@H]3CC(=O)C(C)=C([C@@H](OC(C)=O)[C@H](OC(C)=O)[C@]2(C)[C@@H](OC(C)=O)C[C@@H]1O)C3(C)C | 12.3
C=C1[C@H]2C[C@@H]3C[C@H](O)C(C)=C([C@@H](OC(C)=O)[C@H](OC(C)=O)[C@]2(C)[C@@H](OC(C)=O)C[C@@H]1O)C3(C)C | 63.2
CCCCCC(=O)N[C@@H](c1ccccc1)[C@@H](O)C(=O)O[C@H]1C[C@@]2(O)[C@@H](OC(=O)c3ccccc3)[C@@H]3[C@]4(OC(C)=O)CO[C@@H]4C[C@H](O)[C@@]3(C)C(=O)[C@@H](O)C(=C1C)C2(C)C | 89.2
CC(=O)OC[C@H]1[C@H]2[C@H](O)[C@@H]3C[C@H](OC(C)=O)C(C)=C([C@@H](OC(C)=O)[C@H](OC(C)=O)[C@]2(C)[C@@H](OC(C)=O)C[C@@H]1OC(C)=O)C3(C)C | 12.3
CC(=O)O[C@@]12CO[C@@H]1C[C@H](O)[C@@]1(C)C(=O)[C@H](O)C3=C(C)[C@@H](OC(=O)[C@H](O)[C@@H](NC(=O)c4ccccc4)c4ccccc4)C[C@@](O)([C@@H](OC(=O)c4ccccc4)[C@H]21)C3(C)C | 42.7
CCCCCC(=O)N[C@@H](c1ccccc1)[C@@H](O)C(=O)O[C@H]1C[C@@]2(O)[C@@H](OC(=O)c3ccccc3)[C@@H]3[C@]4(OC(C)=O)CO[C@@H]4C[C@H](O)[C@@]3(C)C(=O)[C@H](O)C(=C1C)C2(C)C [10-DEACETYLTAXAYUNNANINE A] | 40.8
C=C1[C@@H](O)C[C@H](OC(C)=O)[C@@]2(COC(=O)c3ccccc3)[C@@H](OC(C)=O)[C@H](OC(C)=O)[C@]3(O)[C@@]4(C)CO[C@]3(C)C(=O)C[C@H]4[C@@H](OC(C)=O)[C@H]12 [TAXININ M] | 26.9
C=C1[C@@H](O)C[C@H](OC(C)=O)[C@@]2(C)[C@@H](OC(C)=O)[C@H](OC(C)=O)C3=C(C)C(=O)C[C@@H]([C@@H](OC(C)=O)[C@H]12)C3(C)C | 66.1
CC(=O)O[C@H]1C[C@@]2(O)[C@@H](OC(=O)c3ccccc3)[C@@H]3[C@]4(OC(C)=O)CO[C@@H]4C[C@H](O)[C@@]3(C)[C@@H](O)[C@H](OC(C)=O)C(=C1C)C2(C)C | 52.5
CC(=O)O[C@H]1C[C@@]2(O)[C@@H](OC(=O)c3ccccc3)[C@@H]3[C@]4(OC(C)=O)CO[C@@H]4C[C@H](O)[C@@]3(C)[C@@H](O)[C@H](O)C(=C1C)C2(C)C | 28.9
